# According to US9247759B2, “Identification of human T2R receptors that respond to bitter compounds that elicit the bitter taste in compositions, and the use thereof in assays to identify compounds that inhibit (block) bitter taste in compositions and use thereof” (SENOMYX, INC., priority 2007, dated 2016):
# Like-named read-outs stand apart in the source and are kept apart here.
# How the values were obtained:
# hT2R14 [1] = target: T1, hT2R14 (Homo sapiens (Human), UniProt Q9NYV8); assay: hT2R14 antagonist high-throughput FLIPR assay, stable cell line with G16g44, agonist aristolochic acid; type: cell-based
# Outline: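 HEK293 cells stably expressing hT2R14 with chimeric G16g44 were stimulated with aristolochic acid (3 μM), giving 70-80% of maximal receptor activity. Test compounds were added together with the agonist, and antagonism was read as fluorescent calcium signal on FLIPR.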
# hT2R75 = hT2R75 (Homo sapiens (Human), UniProt P59540); assay: hT2R panel inhibition, transient HEK293 G16g44, agonist Strychnine 1 μM; type: cell-based; settings: HEK293, read-out: screening result against bitter receptor 75, compound at 25 μM; receptor activated to EC80 with the corresponding agonist
# hT2R67 = assay: hT2R panel inhibition, transient HEK293 G16g44, agonist Andrographolide 5 μM; type: cell-based, human; settings: compound at 25 μM; receptor activated to EC80 with the corresponding agonist
# Outline: (§1)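 Agonist concentrations were set at EC80 for each receptor. Activity was compared with and without the test compound, and the reduction recorded as inhibition, across 22 individually transfected human T2Rs.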
# hT2R71 = hT2R71 (Homo sapiens (Human), UniProt P59536); assay: hT2R panel inhibition, transient HEK293 G16g44, agonist Picric Acid 10 μM; type: cell-based; settings: HEK293, compound at 25 μM
# Outline: as §1
# hT2R65 = assay: hT2R panel inhibition, transient HEK293 G16g44, agonist Oleuropein 1 mM; type: cell-based, human; settings: compound at 25 μM; receptor activated to EC80 with the corresponding agonist
# Outline: as §1
# hT2R64 = hT2R64 (Homo sapiens (Human), UniProt P59538); assay: hT2R panel inhibition, transient HEK293 G16g44, agonist Aristolochic Acid 1 μM; type: cell-based; settings: HEK293, compound at 25 μM; receptor activated to EC80 with the corresponding agonist; read-out: screening result against bitter receptor 64
# Outline: as §1
# hT2R5 = hT2R5 (Homo sapiens (Human), UniProt Q9NYW4); assay: hT2R panel inhibition, transient HEK293 G16g44, agonist Picoline 10 mM; type: cell-based; settings: HEK293, compound at 25 μM; receptor activated to EC80 with the corresponding agonist; read-out: screening result against bitter receptor 5
# Outline: as §1
# hT2R44 = assay: hT2R panel inhibition, transient HEK293 G16g44, agonist Denatonium 0.5 μM; type: cell-based, human; settings: compound at 25 μM; for screening result against bitter receptor 44: receptor activated to EC80 with the corresponding agonist
# Outline: as §1
# hT2R16 = hT2R16 (Homo sapiens (Human), UniProt Q9NYV7); assay: hT2R panel inhibition, transient HEK293 G16g44, agonist Salicin 1 mM; type: cell-based; settings: HEK293, compound at 25 μM; receptor activated to EC80 with the corresponding agonist; read-out: screening result against bitter receptor 16
# Outline: as §1
# hT2R4 = hT2R4 (Homo sapiens (Human), UniProt Q9NYW5); assay: hT2R panel inhibition, transient HEK293 G16g44, agonist Chloroquine pH6.5 5 mM; type: cell-based; settings: HEK293, compound at 25 μM; receptor activated to EC80 with the corresponding agonist; class symbols; read-out: screening result against bitter receptor 4
# Outline: as §1
# hT2R9 = hT2R9 (Homo sapiens (Human), UniProt Q9NYW1); assay: hT2R panel inhibition, transient HEK293 G16g44, agonist Ofloxacin 1 mM; type: cell-based; settings: HEK293, compound at 25 μM; receptor activated to EC80 with the corresponding agonist; read-out: screening result against bitter receptor 9
# Protocol: (§2) Specifically, in order to evaluate the inhibitory selectivity of the Compound C compound, this compound was tested against 22 human T2Rs which were deorphaned by Senomyx. These receptors and the bitter ligands that activate these human T2Rs are reported in earlier patent applications which are incorporated by reference herein. These 22 human T2Rs are hT2R1, 3, 4, 5, 7, 8, 9, 10, 13, 14, 16, 44, 51, 54, 55, 61, 63, 64, 65, 67, 71 and 75. The amino acid and nucleic acid sequences of all of these T2Rs may be found in these earlier patent applications. These human T2Rs were each individually transiently transfected into HEK293 cells that stably express the promiscuous G protein G16g44 and functional assays were effected using these receptors as disclosed in these same patent applications. […] The ligands were used at EC80 concentration levels. The list of bitter ligands utilized and the tested ligand concentrations are contained in Table 5 of this example.
# (§3) Relating to the foregoing, FIG. 5 contains experimental results wherein Compound C was tested with different agonist compounds. The inhibition activity is represented by the reduction of receptor activity in the presence of Compound C. […] These 13 hT2Rs are hT2R3, 7, 10, 14, 16, 44, 51, 55, 61, 63, 64, 65, and 71.
# hT2R3 = hT2R3 (Homo sapiens (Human), UniProt Q9NYW6); assay: hT2R panel inhibition, transient HEK293 G16g44, agonist Chloroquine pH6.5 50 μM; type: cell-based; settings: HEK293, compound at 25 μM; receptor activated to EC80 with the corresponding agonist; read-out: screening result against bitter receptor 3
# Outline: as §1
# hT2R63 = assay: hT2R panel inhibition, transient HEK293 G16g44, agonist Caffeine 1 mM or Andrographolide 100 μM; type: cell-based, human; settings: compound at 25 μM; for screening result against bitter receptor 63: receptor activated to EC80 with the corresponding agonist
# Outline: as §1
# hT2R61 = hT2R61 (Homo sapiens (Human), UniProt P59537); assay: hT2R panel inhibition, transient HEK293 G16g44, agonist Aristolochic Acid 25 nM; type: cell-based; settings: HEK293, compound at 25 μM; receptor activated to EC80 with the corresponding agonist; read-out: screening result against bitter receptor 61
# Outline: as §1
# hT2R10 = hT2R10 (Homo sapiens (Human), UniProt Q9NYW0); assay: hT2R panel inhibition, transient HEK293 G16g44, agonist Strychnine 50 μM; type: cell-based; settings: HEK293, read-out: screening result against bitter receptor 10, compound at 25 μM; receptor activated to EC80 with the corresponding agonist
# hT2R7 = hT2R7 (Homo sapiens (Human), UniProt Q9NYW3); assay: hT2R panel inhibition, transient HEK293 G16g44, agonist Chloroquine pH6.5 10 mM; type: cell-based; settings: HEK293, compound at 25 μM; receptor activated to EC80 with the corresponding agonist; read-out: screening result against bitter receptor 7
# Outline: as §1
# hT2R55 = assay: hT2R panel inhibition, transient HEK293 G16g44, agonist Cinchonine 150 μM; type: cell-based, human; settings: compound at 25 μM; receptor activated to EC80 with the corresponding agonist
# Outline: as §1
# hT2R14 [2] = target: T1, hT2R14; assay: hT2R panel inhibition, transient HEK293 G16g44, agonist Aristolochic Acid 2 μM; type: cell-based; settings: HEK293, compound at 25 μM
# Outline: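 Each hT2R was transiently transfected into HEK293 cells stably expressing G16g44 and assayed functionally for inhibition of agonist response. Agonists were applied at EC80: andrographolide at 0.5 mM for hT2R8 and aristolochic acid at 2 μM for hT2R14.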
# hT2R51 = hT2R51 (Homo sapiens (Human), UniProt P59533); assay: hT2R panel inhibition, transient HEK293 G16g44, agonist Prop 2.5 μM; type: cell-based; settings: HEK293, compound at 25 μM; receptor activated to EC80 with the corresponding agonist; read-out: screening result against bitter receptor 51
# Outline: as §1
# hT2R54 = assay: hT2R panel inhibition, transient HEK293 G16g44, agonist Ranitidine 5 mM; type: cell-based, human; settings: compound at 25 μM; receptor activated to EC80 with the corresponding agonist
# Outline: as §1
# hT2R13 = hT2R13 (Homo sapiens (Human), UniProt Q9NYV9); assay: hT2R panel inhibition, transient HEK293 G16g44, agonist Oxyphenonium 1 mM; type: cell-based; settings: HEK293, compound at 25 μM; receptor activated to EC80 with agonist; read-out: inhibition of bitter receptor 13
# Protocol: as §2, §3
# [3] = read-out: IC50 on hT2R14 bitter receptor
# [4] = receptor activated to EC80 with the corresponding agonist, read-out: screening result against bitter receptor 71
# [5] = receptor activated to EC80 with the corresponding agonist, read-out: screening result against bitter receptor 14
# [6] = receptor activated to EC80 with agonist
# hT2R71, sequence (P59536 whole entry): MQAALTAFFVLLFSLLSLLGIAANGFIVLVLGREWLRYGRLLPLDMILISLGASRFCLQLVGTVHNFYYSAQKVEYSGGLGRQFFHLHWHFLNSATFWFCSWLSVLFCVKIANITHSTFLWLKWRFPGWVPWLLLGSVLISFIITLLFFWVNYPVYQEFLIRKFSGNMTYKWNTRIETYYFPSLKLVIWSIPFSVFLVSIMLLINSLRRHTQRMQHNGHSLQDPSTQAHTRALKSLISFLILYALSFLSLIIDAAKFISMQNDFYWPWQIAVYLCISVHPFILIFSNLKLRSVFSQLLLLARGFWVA
# T1 sequence (Q9NYV8 whole entry): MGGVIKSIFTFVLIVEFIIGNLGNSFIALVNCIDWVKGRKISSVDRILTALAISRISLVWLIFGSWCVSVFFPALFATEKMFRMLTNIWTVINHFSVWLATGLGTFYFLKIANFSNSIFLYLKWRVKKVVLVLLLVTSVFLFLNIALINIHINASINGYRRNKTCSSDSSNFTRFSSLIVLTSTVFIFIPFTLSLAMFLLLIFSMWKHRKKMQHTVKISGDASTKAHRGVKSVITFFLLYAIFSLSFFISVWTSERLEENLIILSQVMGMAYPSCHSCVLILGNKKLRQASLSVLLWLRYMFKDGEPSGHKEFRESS
# hT2R75, sequence (P59540 whole entry): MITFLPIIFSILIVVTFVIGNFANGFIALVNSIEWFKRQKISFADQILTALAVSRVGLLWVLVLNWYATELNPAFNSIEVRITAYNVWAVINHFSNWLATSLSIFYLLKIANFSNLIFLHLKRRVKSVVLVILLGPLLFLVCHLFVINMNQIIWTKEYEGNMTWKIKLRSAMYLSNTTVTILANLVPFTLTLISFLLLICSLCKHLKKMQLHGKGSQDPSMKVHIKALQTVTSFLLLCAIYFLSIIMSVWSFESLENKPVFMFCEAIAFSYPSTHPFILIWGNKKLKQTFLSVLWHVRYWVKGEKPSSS
# hT2R3, sequence (Q9NYW6 whole entry): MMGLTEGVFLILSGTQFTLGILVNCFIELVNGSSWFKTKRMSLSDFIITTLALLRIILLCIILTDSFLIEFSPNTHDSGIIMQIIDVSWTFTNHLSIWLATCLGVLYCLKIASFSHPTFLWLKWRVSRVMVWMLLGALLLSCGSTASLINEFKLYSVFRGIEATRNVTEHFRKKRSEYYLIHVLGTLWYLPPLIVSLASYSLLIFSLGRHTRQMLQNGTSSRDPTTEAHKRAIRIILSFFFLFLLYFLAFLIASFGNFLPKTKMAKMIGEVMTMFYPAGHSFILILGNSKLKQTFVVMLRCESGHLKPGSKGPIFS
# hT2R64, sequence (P59538 whole entry): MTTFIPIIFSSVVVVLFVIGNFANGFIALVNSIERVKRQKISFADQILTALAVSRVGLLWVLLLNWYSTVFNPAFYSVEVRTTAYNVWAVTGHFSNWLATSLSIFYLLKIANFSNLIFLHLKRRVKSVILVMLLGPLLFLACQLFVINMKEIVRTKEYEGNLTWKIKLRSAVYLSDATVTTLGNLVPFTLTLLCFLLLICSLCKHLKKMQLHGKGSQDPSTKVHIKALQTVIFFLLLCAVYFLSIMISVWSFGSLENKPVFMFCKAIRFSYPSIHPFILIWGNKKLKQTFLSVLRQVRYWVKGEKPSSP
# hT2R16, sequence (Q9NYV7 whole entry): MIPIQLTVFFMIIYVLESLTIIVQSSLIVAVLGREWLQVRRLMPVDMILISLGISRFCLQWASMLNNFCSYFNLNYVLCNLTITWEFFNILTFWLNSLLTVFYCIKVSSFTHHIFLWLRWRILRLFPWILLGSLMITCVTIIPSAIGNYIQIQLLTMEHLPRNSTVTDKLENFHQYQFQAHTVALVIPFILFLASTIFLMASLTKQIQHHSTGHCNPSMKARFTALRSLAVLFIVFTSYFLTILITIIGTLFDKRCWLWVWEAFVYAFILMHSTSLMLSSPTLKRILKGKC
# hT2R9, sequence (Q9NYW1 whole entry): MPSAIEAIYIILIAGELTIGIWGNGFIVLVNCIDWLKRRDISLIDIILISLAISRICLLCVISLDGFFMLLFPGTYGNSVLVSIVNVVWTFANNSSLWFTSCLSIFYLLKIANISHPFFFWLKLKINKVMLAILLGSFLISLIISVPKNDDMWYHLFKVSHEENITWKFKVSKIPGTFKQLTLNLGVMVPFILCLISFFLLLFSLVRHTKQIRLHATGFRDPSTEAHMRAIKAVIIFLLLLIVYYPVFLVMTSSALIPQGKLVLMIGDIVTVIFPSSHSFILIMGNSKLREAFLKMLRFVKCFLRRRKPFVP
# hT2R5, sequence (Q9NYW4 whole entry): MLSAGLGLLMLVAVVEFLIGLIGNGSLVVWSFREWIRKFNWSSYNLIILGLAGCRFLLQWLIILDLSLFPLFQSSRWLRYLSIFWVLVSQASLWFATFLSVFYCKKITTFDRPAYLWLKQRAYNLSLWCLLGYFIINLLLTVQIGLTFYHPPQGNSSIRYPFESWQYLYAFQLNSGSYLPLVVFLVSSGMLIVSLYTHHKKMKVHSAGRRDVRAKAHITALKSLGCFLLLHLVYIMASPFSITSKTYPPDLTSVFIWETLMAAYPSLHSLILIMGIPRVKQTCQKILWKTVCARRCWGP
# hT2R61, sequence (P59537 whole entry): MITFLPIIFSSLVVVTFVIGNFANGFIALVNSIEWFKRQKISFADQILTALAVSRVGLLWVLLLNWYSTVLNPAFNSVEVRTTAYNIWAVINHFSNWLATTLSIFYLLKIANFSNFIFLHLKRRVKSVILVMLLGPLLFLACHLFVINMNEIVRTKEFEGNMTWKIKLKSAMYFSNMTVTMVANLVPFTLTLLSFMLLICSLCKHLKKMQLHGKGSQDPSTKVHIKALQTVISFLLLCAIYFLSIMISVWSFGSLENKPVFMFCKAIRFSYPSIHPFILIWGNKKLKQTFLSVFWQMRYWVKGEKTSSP
# hT2R7, sequence (Q9NYW3 whole entry): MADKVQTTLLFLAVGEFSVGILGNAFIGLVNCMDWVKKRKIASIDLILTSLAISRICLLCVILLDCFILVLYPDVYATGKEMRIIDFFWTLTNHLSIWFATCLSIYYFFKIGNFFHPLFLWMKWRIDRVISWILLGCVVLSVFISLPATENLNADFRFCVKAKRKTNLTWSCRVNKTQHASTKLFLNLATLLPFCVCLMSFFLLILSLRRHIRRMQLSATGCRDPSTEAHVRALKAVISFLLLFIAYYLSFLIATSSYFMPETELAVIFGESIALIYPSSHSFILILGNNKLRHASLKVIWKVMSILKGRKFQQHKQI
# hT2R4, sequence (Q9NYW5 whole entry): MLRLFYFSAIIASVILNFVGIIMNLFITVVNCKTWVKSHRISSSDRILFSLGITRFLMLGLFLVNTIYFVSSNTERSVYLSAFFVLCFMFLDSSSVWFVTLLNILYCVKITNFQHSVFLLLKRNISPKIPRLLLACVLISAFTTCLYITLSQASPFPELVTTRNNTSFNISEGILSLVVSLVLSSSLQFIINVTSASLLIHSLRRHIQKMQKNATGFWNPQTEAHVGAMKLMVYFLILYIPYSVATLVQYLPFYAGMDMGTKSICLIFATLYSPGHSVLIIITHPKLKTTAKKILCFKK
# hT2R10, sequence (Q9NYW0 whole entry): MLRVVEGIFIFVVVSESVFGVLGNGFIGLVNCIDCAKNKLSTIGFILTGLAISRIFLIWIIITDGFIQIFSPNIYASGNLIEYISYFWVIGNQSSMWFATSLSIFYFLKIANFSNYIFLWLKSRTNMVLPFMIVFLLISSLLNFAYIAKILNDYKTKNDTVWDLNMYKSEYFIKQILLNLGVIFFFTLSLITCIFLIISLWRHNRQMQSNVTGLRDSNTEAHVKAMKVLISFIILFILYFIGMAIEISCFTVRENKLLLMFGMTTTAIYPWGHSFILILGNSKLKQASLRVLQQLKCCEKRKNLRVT
# hT2R51, sequence (P59533 whole entry): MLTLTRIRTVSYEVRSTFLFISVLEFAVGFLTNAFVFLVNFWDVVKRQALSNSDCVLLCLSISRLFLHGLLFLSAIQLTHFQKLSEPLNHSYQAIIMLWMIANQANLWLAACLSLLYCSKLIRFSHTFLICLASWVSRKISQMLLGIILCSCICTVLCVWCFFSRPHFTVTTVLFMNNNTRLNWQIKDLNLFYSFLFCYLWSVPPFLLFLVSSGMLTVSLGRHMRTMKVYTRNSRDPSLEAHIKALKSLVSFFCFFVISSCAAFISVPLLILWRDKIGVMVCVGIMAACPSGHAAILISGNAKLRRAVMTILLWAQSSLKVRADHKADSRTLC
# hT2R13, sequence (Q9NYV9 whole entry): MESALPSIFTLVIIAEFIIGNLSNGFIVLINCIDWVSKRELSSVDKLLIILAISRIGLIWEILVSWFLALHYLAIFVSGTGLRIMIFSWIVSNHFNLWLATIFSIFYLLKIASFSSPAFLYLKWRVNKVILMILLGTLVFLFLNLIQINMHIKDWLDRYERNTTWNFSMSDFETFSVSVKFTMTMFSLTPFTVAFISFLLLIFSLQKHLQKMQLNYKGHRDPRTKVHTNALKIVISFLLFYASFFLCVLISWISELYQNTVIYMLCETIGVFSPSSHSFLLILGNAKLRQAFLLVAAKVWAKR
smiles,measurement,setting,value
"Cc1ccc(S(=O)(=O)N(Cc2ccccc2)CC2CCC(C(=O)O)CC2)cc1 (centres unmarked) [Example 5-11, 4-((N-benzyl-4-methylphenylsulfonamido)methyl)cyclohexane-carboxylic acid]",IC50,hT2R14 [1]; [3],14 nM
same,inhibition at 25 µM,hT2R75,40 to 60%
same,screening result against bitter receptor 67,hT2R67,+ (20% to 40% inhibition = +)
same,inhibition at 25 µM,hT2R71; [4],60 to 80%
same,screening result against bitter receptor 65,hT2R65,+ (20% to 40% inhibition = +)
same,inhibition at 25 µM,hT2R64,40 to 60%
same,inhibition at 25 µM,hT2R5,20 to 40%
same,screening result against bitter receptor 44,hT2R44,+++ (60% to 80% inhibition = +++)
same,inhibition at 25 µM,hT2R16,40 to 60%
same,inhibition at 25 µM,hT2R4,60 to 80%
same,inhibition at 25 µM,hT2R9,20 to 40%
same,inhibition at 25 µM,hT2R3,60 to 80%
same,screening result against bitter receptor 63,hT2R63,+++ (60% to 80% inhibition = +++)
same,inhibition at 25 µM,hT2R61,> 80%
same,inhibition at 25 µM,hT2R10,40 to 60%
same,inhibition at 25 µM,hT2R7,40 to 60%
same,screening result against bitter receptor 55,hT2R55,++++ (80% or greater inhibition = ++++)
same,inhibition at 25 µM,hT2R14 [2]; [5],> 80%
"COc1cccc(CN(Cc2ccc(C(=O)O)cc2)S(=O)(=O)c2ccccc2)c1 [Example 5-101, 4-((N-(3-methoxybenzyl)phenylsulfonamido)methyl) benzoic acid]",IC50,"hT2R14 [1]; Table C, read-out: hT2R14 IC50",345 nM
same,inhibition at 25 µM,hT2R75,40 to 60%
same,screening result against bitter receptor 67,hT2R67,++ (40% to 60% inhibition = ++)
same,inhibition at 25 µM,hT2R71; [4],60 to 80%
same,screening result against bitter receptor 65,hT2R65,+++ (60% to 80% inhibition = +++)
same,inhibition at 25 µM,hT2R64,> 80%
same,inhibition at 25 µM,hT2R5,40 to 60%
same,inhibition at 25 µM,hT2R51,40 to 60%
same,screening result against bitter receptor 44,hT2R44,+++ (60% to 80% inhibition = +++)
same,screening result against bitter receptor 54,hT2R54,++ (40% to 60% inhibition = ++)
same,inhibition at 25 µM,hT2R16,40 to 60%
same,inhibition at 25 µM,hT2R4,40 to 60%
same,inhibition at 25 µM,hT2R9,20 to 40%
same,inhibition at 25 µM,hT2R3,60 to 80%
same,screening result against bitter receptor 63,hT2R63,+++ (60% to 80% inhibition = +++)
same,inhibition at 25 µM,hT2R61,> 80%
same,inhibition at 25 µM,hT2R10,60 to 80%
same,inhibition at 25 µM,hT2R7,60 to 80%
same,screening result against bitter receptor 55,hT2R55,+++ (60% to 80% inhibition = +++)
same,inhibition at 25 µM,hT2R14 [2]; [5],> 80%
"Cn1c(=O)c(=O)n(C)c2cc(S(=O)(=O)Nc3ccc4c(c3)OCCO4)ccc21 [Example 6-3, N-(2,3-dihydrobenzo[b][1,4]dioxin-6-yl)-1,4-dimethyl-2,3-dioxo-1,2,3,4-tetrahydroquinoxaline-6-sulfonamide]",IC50,hT2R14 [1]; [3],7710 nM
same,inhibition at 25 µM,"hT2R71; receptor activated to EC80 with agonist, read-out: inhibition of bitter receptor 71",20 to 40%
same,inhibition of bitter receptor 44,hT2R44; [6],+ (20% to 40% inhibition = +)
same,inhibition of bitter receptor 63,hT2R63; [6],+ (20% to 40% inhibition = +)
same,inhibition at 25 µM,hT2R13,20 to 40%
same,inhibition at 25 µM,"hT2R14 [2]; receptor activated to EC80 with agonist, read-out: inhibition of bitter receptor 14",> 80%
